We go through three compounds from article PMC8890504, “Evolution of Brain-Expressed Biogenic Amine Receptors into Olfactory Trace Amine-Associated Receptors” (Molecular Biology and Evolution, 2022).

In one assay the test system is medaka TAAR21f. In words: Cell-based receptor activation reporter assay (SEAP / Dual-Glo luciferase). The protocol: (§1) Fluorescence was measured with a BioTek Microplate reader.
In general terms: A reporter such as luciferase makes a cellular process visible.

For another assay, the target named is spotted gar TAAR1b (Lepisosteus oculatus, UniProt W5NMY1). The assay is described as above. The protocol:
as §1

A further assay concerns the target catfish TAAR13f (Ictalurus punctatus, UniProt A0A2D0SGW4). Described as above. The protocol:
as §1

A further assay addresses catfish TAAR13h (Ictalurus punctatus, UniProt A0A2D0SG84). The assay is described as above. The protocol: as §1
The next assay deals with shark TARL2 (Chiloscyllium punctatum, UniProt A0A401SGR3). The description is as above. The arrangement: species or system bamboo shark. The protocol: as §1
Sequence of shark TARL2 (A0A401SGR3 entry or part of it): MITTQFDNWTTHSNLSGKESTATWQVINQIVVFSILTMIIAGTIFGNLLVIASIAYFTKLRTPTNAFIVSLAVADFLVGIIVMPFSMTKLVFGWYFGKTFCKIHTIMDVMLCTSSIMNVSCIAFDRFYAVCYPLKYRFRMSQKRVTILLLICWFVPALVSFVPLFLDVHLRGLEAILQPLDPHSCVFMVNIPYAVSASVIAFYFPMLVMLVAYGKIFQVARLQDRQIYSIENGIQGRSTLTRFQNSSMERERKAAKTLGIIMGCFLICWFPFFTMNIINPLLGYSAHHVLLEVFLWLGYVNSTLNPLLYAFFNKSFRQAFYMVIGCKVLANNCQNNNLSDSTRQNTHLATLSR
The target of a further assay is TARLL1b (Petromyzon marinus, UniProt A0AAJ7TCG4). The description is as above. The arrangement: species or system sea lamprey. The settings on record: TARLL1b. As for the experimental part: as §1
Sequence of TARLL1b (A0AAJ7TCG4 entry or part of it): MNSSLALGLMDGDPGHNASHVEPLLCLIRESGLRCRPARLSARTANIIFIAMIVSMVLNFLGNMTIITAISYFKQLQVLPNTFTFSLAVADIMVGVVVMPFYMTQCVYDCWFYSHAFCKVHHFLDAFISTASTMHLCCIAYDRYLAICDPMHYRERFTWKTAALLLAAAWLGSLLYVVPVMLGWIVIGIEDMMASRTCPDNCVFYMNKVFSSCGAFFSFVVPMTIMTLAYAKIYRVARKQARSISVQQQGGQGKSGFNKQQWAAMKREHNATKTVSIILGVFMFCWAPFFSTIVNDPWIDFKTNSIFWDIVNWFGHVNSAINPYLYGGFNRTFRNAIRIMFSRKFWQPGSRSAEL
The next assay concerns the target mouse TAAR1 (Mus musculus, UniProt Q923Y8). Nature of the assay: cell-based. Particulars: mTAAR1. An excerpt:
(§2) Next, we conducted high-throughput screening to further explore the functional properties of these aminergic receptors. We cloned 248 TAARs from 11 mammals (human, mouse, rat, guinea pig, hamster, cat, horse, rabbit, sheep, rhesus, and wild boar), two reptiles (alligator and chicken), six teleosts (zebrafish, catfish, fugu, medaka, salmon, and pufferfish), one lobed-finned fish (coelacanth), one holost fish (spotted gar), and one cartilaginous fish (bamboo shark) (fig. 2A). We also cloned eight TARLs from coelacanth, zebrafish, catfish, fugu, medaka, spotted gar, shark, and 28 TARLLs from sea lamprey (supplementary table S2, Supplementary Material online). In addition, we cloned two HTR4s from mouse and zebrafish. We then challenged all of the cloned receptors with a ligand library comprised 97 amines at 100 µM.
We then compared the responses of HTR4 from mouse and zebrafish, TARL1 from zebrafish, catfish, fugu, medaka, spotted gar, and coelacanth, TARL2 from coelacanth and shark, TAAR1 from mouse and zebrafish to the 16 ligands at 10 µM (fig. 5B).
(§3) HEK293 cells were plated onto poly-D-lysine (Sigma–Aldrich) preincubated 96-well plates (Corning) with 50 µl growth medium (DMEM medium with 10% BCS and 5% penicillin–streptomycin solution) and cultured for 18–24 h. Receptor plasmids were cotransfected with Cre-SEAP plasmid using polyethylenimine (PEI, Polysciences) and incubated at 37 °C with 5% CO2. About 4 h later, cells were incubated with or without test compounds diluted in serum-free DMEM for 48 h, followed by incubating for 2 h at 70 °C. After returning to room temperature, 50 µl supernatant from each well was incubated with an equal volume of 0.3 mM 4-methylumbelliferyl phosphate (4-MUP, Sigma–Aldrich) in 2 M diethanolamine bicarbonate (Sigma–Aldrich), pH 10.0 for 15 min. Fluorescence was measured with a BioTek Microplate reader.
(§4) Hana3A cells were plated onto 96-well plates (Greiner bio-one) with 50 µl growth medium (DMEM medium with 10% BCS and 5% penicillin–streptomycin solution with puromycin) and cultured at 37 °C with 5% CO2. After 18–24 h, cells in each well were cotransfected with 50 ng receptor plasmid, 10 ng CRE-Luc, 10 ng pRL-SV40, and 10 ng mRTPs using Lipofectamine 2000 (Invitrogen), and incubated for 18 h. Medium was then replaced by 25 µl CD293 (Invitrogen) containing 1% glutamine with or without test compounds for 4 h. The chemiluminescence of firefly luciferase and renilla luciferase were measured with a Biotek Microplate reader using the Dual-Glo Luciferase Assay System (Promega).

Another assay concerns the target (UniProt Z9G6W3R3V9). Nature of the assay: Cell-based receptor activation reporter assay (SEAP / Dual-Glo luciferase). Particulars: coelacanth TARL1. As for the experimental part: as §1
For a further assay, the target named is catfish TAAR13g (Ictalurus punctatus, UniProt A0A2D0SG81). The assay is described as above. The protocol:
as §1

Another assay concerns the target coelacanth TAARC1b (Latimeria chalumnae, UniProt H3A8V0). The assay is described as above. The protocol:
as §1

In another assay the target is coelacanth TARL2 (Latimeria chalumnae, UniProt H3AWX3). The description is as above. The protocol:
as §1

A further assay concerns the target spotted gar TARL1 (Lepisosteus oculatus, UniProt W5NNR6). The assay is described as above. As for the experimental part: as §1
For the next assay, the target named is zebrafish TAAR1 (Danio rerio, UniProt Q5QNN1). Described as above. The settings on record: zTAAR1. The protocol:
as §1

The target of a further assay is zebrafish TARL1 (Danio rerio, UniProt A0A8M1Q794). The assay is described as above. As for the experimental part:
as §1

For the next assay, the target named is mouse HTR4 (Mus musculus, UniProt P97288). In words: cell-based.
Sequence of mouse HTR4 (P97288 whole entry): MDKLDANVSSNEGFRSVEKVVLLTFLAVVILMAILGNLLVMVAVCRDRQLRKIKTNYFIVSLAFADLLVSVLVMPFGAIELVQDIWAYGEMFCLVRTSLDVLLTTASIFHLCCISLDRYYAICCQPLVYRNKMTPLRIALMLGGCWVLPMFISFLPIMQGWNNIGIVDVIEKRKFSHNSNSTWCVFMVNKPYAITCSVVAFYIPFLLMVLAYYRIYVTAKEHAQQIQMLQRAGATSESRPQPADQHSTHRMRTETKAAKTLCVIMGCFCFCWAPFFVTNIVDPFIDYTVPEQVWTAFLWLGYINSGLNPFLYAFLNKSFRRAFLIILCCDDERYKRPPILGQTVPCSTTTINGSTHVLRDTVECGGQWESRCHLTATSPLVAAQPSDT
From the text: as §2, §3, §4

In a further assay the test system is TARL1. Nature of the assay: Response to 16 ligands at 10 µM, luciferase assay. The assay is classed as cell-based. The settings on record: fig. 5B. The protocol:
Ligand profiles and expression patterns of HTR4, TARL, and TAAR1. (A) qPCR analysis of different receptors in zebrafish tissues. Gapdh serves as a control. (B) Response of HTR4, TARL, TAARC1, and TAAR1 to 16 ligands at 10 μM. The heatmap is based on the ratio of fluorescence intensity of ligand–receptor interaction and no ligand controls in the luciferase assay. […] (C) PhyloPCA analysis on the responses of HTR4, TARL, TAARC1, and TAAR1 to these 16 ligands. […] Dots colored by receptor clades represent the ligand responses of receptors on the first two PC axes. Ligand eigenvectors are represented by lines and colored according to the ligand clusters. A ligand name is shown at the tip of the line if its eigenvector has a higher contribution (compared with other ligands) to either PC1 or PC2. […] (D) The presence of HTR4, TARL1, TARL2, and TAAR1 in several representative species in vertebrates is plotted. […]
Hana3A cells were plated onto 96-well plates (Greiner bio-one) with 50 µl growth medium (DMEM medium with 10% BCS and 5% penicillin–streptomycin solution with puromycin) and cultured at 37 °C with 5% CO2. […] The chemiluminescence of firefly luciferase and renilla luciferase were measured with a Biotek Microplate reader using the Dual-Glo Luciferase Assay System (Promega).

Sequence of zebrafish TARL1 (A0A8M1Q794 entry or part of it): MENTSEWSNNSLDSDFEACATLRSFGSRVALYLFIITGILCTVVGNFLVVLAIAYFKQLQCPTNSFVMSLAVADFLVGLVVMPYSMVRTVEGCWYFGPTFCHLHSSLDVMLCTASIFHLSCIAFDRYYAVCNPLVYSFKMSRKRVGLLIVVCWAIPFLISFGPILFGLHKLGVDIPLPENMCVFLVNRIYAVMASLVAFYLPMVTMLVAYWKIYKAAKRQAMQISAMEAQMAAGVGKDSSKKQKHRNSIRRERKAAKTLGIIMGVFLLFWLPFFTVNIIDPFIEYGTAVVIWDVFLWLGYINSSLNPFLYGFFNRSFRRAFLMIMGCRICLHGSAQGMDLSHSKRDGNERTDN
Sequence of catfish TAAR13f (A0A2D0SGW4 entry or part of it): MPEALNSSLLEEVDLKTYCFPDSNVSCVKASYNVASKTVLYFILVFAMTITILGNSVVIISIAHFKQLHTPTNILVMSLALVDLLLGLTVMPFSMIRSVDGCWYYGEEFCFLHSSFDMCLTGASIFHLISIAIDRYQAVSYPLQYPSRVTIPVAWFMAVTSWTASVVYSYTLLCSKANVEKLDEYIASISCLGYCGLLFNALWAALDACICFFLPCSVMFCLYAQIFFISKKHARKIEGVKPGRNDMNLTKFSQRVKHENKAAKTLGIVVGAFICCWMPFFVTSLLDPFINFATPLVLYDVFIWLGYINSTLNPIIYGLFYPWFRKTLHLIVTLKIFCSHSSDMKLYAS
Sequence of zebrafish TAAR1 (Q5QNN1 entry or part of it): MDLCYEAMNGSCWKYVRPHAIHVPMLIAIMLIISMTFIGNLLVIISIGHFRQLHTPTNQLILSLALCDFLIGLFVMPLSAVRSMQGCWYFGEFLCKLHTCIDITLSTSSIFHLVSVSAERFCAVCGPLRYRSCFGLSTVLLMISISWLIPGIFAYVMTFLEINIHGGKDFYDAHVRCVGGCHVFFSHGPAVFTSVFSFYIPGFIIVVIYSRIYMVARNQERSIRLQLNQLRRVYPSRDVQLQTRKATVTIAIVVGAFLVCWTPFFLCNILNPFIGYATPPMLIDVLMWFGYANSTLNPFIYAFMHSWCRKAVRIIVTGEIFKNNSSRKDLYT
Sequence of mouse TAAR1 (Q923Y8 whole entry): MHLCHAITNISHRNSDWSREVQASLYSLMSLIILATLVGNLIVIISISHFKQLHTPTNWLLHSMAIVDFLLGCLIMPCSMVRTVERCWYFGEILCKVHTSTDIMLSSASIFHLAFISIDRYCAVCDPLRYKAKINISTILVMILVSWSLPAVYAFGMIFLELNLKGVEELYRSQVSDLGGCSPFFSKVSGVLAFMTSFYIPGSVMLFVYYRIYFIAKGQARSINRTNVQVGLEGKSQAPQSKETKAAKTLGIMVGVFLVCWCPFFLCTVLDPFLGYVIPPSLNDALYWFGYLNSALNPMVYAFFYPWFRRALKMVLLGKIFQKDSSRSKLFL
Sequence of catfish TAAR13g (A0A2D0SG81 entry or part of it): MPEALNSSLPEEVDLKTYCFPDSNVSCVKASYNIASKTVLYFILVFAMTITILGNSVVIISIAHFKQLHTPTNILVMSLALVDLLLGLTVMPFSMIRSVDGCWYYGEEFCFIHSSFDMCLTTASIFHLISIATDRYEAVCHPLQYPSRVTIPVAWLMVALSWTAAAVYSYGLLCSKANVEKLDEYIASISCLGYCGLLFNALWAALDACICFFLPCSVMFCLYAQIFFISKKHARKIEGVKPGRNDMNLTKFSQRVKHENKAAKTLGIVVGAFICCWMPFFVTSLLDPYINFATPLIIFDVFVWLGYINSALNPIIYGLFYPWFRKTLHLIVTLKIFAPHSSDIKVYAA
Sequence of coelacanth TAARC1b (H3A8V0 entry or part of it): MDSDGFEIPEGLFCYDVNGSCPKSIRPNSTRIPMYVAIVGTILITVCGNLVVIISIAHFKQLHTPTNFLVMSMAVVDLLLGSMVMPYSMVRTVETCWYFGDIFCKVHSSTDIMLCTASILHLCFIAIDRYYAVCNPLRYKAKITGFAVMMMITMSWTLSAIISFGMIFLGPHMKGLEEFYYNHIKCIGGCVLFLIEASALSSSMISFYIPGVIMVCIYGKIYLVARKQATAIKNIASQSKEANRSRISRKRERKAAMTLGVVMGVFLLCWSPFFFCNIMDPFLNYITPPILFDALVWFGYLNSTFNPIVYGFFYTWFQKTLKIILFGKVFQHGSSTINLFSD
Sequence of spotted gar TARL1 (W5NNR6 entry or part of it): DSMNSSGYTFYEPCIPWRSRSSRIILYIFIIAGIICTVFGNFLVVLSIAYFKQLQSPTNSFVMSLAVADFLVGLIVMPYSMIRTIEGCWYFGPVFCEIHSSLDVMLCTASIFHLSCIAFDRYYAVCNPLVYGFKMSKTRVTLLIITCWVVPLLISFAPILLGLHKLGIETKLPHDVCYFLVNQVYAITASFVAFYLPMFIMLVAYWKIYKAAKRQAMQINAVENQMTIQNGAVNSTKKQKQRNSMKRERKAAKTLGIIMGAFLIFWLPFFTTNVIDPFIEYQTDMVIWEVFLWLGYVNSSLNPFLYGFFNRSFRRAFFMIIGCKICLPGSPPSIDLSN
Sequence of catfish TAAR13h (A0A2D0SG84 entry or part of it): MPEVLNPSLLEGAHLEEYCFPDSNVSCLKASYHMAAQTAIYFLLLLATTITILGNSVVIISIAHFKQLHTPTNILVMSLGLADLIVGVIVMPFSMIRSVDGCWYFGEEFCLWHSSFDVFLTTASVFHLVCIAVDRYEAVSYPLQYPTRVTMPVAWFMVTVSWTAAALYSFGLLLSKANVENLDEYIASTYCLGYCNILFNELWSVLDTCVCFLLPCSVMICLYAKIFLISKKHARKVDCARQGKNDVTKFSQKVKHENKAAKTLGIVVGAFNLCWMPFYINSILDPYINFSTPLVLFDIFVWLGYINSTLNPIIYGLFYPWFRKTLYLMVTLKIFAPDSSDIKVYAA
Sequence of spotted gar TAAR1b (W5NMY1 entry or part of it): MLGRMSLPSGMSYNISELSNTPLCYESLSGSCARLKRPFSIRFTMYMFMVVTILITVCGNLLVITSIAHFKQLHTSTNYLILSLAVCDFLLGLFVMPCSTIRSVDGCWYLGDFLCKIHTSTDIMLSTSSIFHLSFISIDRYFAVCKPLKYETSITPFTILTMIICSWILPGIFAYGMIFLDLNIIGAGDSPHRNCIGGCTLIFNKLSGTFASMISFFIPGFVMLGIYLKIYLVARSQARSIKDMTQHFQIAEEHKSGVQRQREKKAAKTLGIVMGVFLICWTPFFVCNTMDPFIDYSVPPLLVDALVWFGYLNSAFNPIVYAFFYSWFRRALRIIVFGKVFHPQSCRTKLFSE
Sequence of coelacanth TARL2 (H3AWX3 entry or part of it): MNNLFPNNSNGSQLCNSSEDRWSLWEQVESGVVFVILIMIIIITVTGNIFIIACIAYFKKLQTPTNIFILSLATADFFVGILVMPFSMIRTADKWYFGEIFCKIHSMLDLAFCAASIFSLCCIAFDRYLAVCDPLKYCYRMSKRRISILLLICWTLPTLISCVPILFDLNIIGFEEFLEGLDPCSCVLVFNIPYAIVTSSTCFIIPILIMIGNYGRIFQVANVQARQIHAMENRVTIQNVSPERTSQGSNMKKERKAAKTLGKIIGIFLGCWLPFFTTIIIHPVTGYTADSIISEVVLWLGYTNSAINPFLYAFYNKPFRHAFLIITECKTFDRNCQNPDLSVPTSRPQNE

Usually EC50 stands for the concentration at which the effect is half-maximal. On to `NCCc1ccc(O)cc1` [Tyramine, tyramine], for which the EC50 in the assay on medaka TAAR21f worked out at 0.09 µM; at spotted gar TAAR1b, 0.7 µM.

Regarding `N=C(N)NCCCCN` [Agmatine, agmatine], the figures for the EC50 on catfish TAAR13f and on catfish TAAR13h were 0.04 nM and 165 µM, respectively.

With `NCCc1c[nH]c2ccccc12` [Tryptamine, tryptamine], the EC50 was roughly 40 µM at shark TARL2; roughly 100 µM at TARLL1b; roughly 28 µM on mouse TAAR1; 18.1 µM at (UniProt Z9G6W3R3V9); roughly 30 µM at catfish TAAR13g; roughly 150 µM on coelacanth TAARC1b. Besides, the EC50 is roughly 200 µM on coelacanth TARL2; 3.1 µM on spotted gar TARL1; roughly 52 µM at zebrafish TAAR1; 0.04 µM at zebrafish TARL1; roughly 180 µM at mouse HTR4. Moreover, in the assay with TARL1, the TARL1 ligand profile result was “ligands include”.
